Experimental findings from ChEMBL document CHEMBL1777804, “Part 3: Design and synthesis of proline-derived α2δ ligands” (Bioorg Med Chem Lett, 2011) are described below.

For one data set, the species on record is Rattus norvegicus. The data set is described as follows: Unbound clearance in rat urine. Format: ADME, organism-based. Particulars: in vivo.
A short description of data set [1]: Plasma protein binding in rat. Format: ADME, cell-free. Particulars: read-out: PPB (converted).
Data set [2] in a line: Displacement of [3H]gabapentin from Voltage-dependent calcium channel subunit alpha-2/delta in pig cerebral cortex. Type of data set: tissue-based, Sus scrofa. For orientation: Loss of bound radioactivity is the signal in a displacement assay; it reports binding, not function.
Data set [3] is described as follows: Oral bioavailability in rat. Type of data set: ADME, organism-based. Particulars: in vivo.
Data set [4] in a line: Half life in rat. Type of data set: ADME, organism-based. Particulars: in vivo.
Data set [5] can be described thus: Dissociation constant, pKa of the compound. Type of data set: physicochemical.
Data set [6] can be described thus: Clearance in dog at 0.5 mg/kg, po. Format: ADME, organism-based, Canis lupus familiaris. Also on record: dose 0.5 mg/kg, route oral. Particulars: in vivo.
Data set [7] can be described thus: Lipophilicity, log D of the compound. Particulars: octanol/water. Type of data set: physicochemical.
Data set [8] in a line: Half life in dog at 0.5 mg/kg, po. Type of data set: ADME, organism-based, Canis lupus familiaris. More on the design: dose 0.5 mg/kg, route oral. Particulars: in vivo.
Data set [9] in a line: Ratio of drug level in CSF to plasma in rat. Format: ADME.
The nature of data set [10]: Plasma protein binding in human. Format: ADME, cell-free. Particulars: read-out: PPB (converted).
Data set [11] in a line: Inhibition of Voltage-dependent calcium channel subunit alpha-2/delta.

Molecules are shown by their SMILES.

With `O=C(O)[C@@H]1C[C@H](Oc2cccc(Cl)c2)CN1`, in the data set filed under Rattus norvegicus, the CL was determined as 41 mL/min/kg. Besides, the fraction unbound in data set [1] was 0.19. The half-maximal inhibitory concentration (IC50) (in general, the concentration that inhibits the measured activity by half) in data set [2] was 0.004 µM. The bioavailability – broadly, the share of a dose that reaches the circulation, judged against a reference dose that is usually intravenous – in data set [3] stood at 100%. Also, in [4], the half-life (in general, the time in which the quantity being followed falls by half) was 0.4 h. Moreover, the pKa – broadly, the negative logarithm of the acid dissociation constant – in data set [5] was determined as 8.9.

`O=C(O)[C@@H]1C[C@H](COc2cccc(Cl)c2)CN1`: the IC50 in [2] was determined as 0.013 µM.

As for `Cl.O=C(O)[C@@H]1C[C@H](Cc2cccc(F)c2)CN1`, the CL/F (in general, the apparent clearance, not corrected for the fraction that reaches the circulation) in data set [6] worked out at 0.4 mL/min/kg. In the data set filed under Rattus norvegicus, the CL worked out at 6 mL/min/kg. In data set [7], the logD (usually the decadic logarithm of the distribution of all forms, ionised or not, between an organic phase and buffer at a given pH) is 0.1. Further, the fraction unbound in data set [1] is 0.82; in data set [10] it was 0.73. Moreover, the half-life was 26 h in data set [8] and 1.6 h in data set [4]. Also, in data set [2], the IC50 was 0.017 µM. Also, the bioavailability in [3] amounted to 89%. This compound registered a pKa in data set [5] of 10.1. Further, the partition ratio (Kp) (as a rule, tissue or fluid exposure divided by exposure in the circulation) in data set [9] amounted to 0.004.

As for `O=C(O)[C@@H]1C[C@H](OCc2ccc(Cl)cc2)CN1`, the CL in the data set filed under Rattus norvegicus was determined as 26 mL/min/kg. In addition, in data set [1], the fraction unbound is 0.65. For the same compound, in [2], the IC50 amounted to 0.048 µM.

Consider `O=C(O)[C@@H]1C[C@H](Cc2ccccc2F)CN1`, for which, in data set [2], the IC50 amounted to 0.108 µM.

In the case of `O=C(O)[C@@H]1C[C@H](COc2cccc(F)c2)CN1`, the CL in the data set listed under Rattus norvegicus was 7 mL/min/kg. Moreover, in [7], the logD is -0.3. Further, the fraction unbound in data set [1] is 0.91; in data set [10], 0.32. For the same compound, in data set [2], the 50% inhibitory concentration (IC50) came out at 0.025 µM. Also, the half-life in data set [4] is 1.4 h.

Consider `O=C(O)[C@@H]1C[C@H](Cc2ccccc2Cl)CN1`, for which the CL in the data set filed under Rattus norvegicus turned out to be 15 mL/min/kg. Moreover, the logD in [7] is 0.6. In addition, in data set [1], the fraction unbound is 0.67. Further, the IC50 in [2] was determined as 0.008 µM. Also, the half-life in data set [4] is 0.5 h.

For the compound `O=C(O)[C@@H]1C[C@H](Cc2cc(Cl)ccc2Cl)CN1`, in data set [2], the IC50 was found to be 0.005 µM.

Take `O=C(O)[C@@H]1C[C@H](Cc2cccc(OC(F)(F)F)c2)CN1`: in data set [2], the IC50 amounted to 0.004 µM.

For `CCc1cccc(C[C@@H]2CN[C@H](C(=O)O)C2)c1`, the IC50 in data set [2] stood at 0.027 µM.

As for `O=C(O)[C@@H]1C[C@H](Cc2cccc(F)c2F)CN1`, the IC50 in data set [2] was determined as 0.027 µM.

For the compound `COc1cccc(C[C@@H]2CN[C@H](C(=O)O)C2)c1`, the IC50 in data set [2] stood at 0.028 µM.

Turning to `O=C(O)[C@@H]1C[C@H](Cc2cc(F)ccc2F)CN1`, the IC50 in data set [2] stood at 0.01 µM.

In the case of `O=C(O)[C@@H]1C[C@H](Cc2ccccc2)CN1`, in [2], the half-inhibitory concentration (IC50) amounted to 0.272 µM.

As to `O=C(O)[C@H]1C[C@@H](Cc2cccc(F)c2)CN1`, the IC50 in data set [2] is more than 10 µM.

For `NCC1(CC(=O)O)CCCCC1` [GABAPENTIN], in data set [11], the IC50 is 0.14 µM.

As for `CC(C)C[C@H](CN)CC(=O)O` [PREGABALIN], in [11], the half-maximal inhibitory concentration (IC50) is 0.08 µM.
